Drawing on paper PMC5633905, “Conformational dynamics of the essential sensor histidine kinase WalK” (Acta Crystallographica. Section D, Structural Biology, 2017), this text covers Kd for 3 molecules.

Assay in all cases: ITC
A general note: ITC needs no label: the signal is the heat of the interaction.

One test addresses T1, smVicK (196-450) (Streptococcus mutans, UniProt Q8DT64).
T1 construct: gene covS; DHp + CA domains, residues 196-450, pET-His vector, expressed in E. coli and purified as lpWalK
It is filed as binding.

A further test deals with T2, lpWalK (370-624).
T2 construct: gene walK; catalytic region DHp + CA domains, residues 370-624, N-terminal His tag, pET-His, E. coli BL21(DE3); DHp homodimer
The format is binding, Lactiplantibacillus plantarum. The settings on record: 20 mM Tris-HCl pH 8.0, 5 mM MgCl2, 25 °C, fixed 1:1 model.

The target in the next test is T3, smVicK CA (271-450) (Streptococcus mutans, UniProt Q8DT64).
T3 construct: gene covS
T3 sequence (Q8DT64 entry or part of it): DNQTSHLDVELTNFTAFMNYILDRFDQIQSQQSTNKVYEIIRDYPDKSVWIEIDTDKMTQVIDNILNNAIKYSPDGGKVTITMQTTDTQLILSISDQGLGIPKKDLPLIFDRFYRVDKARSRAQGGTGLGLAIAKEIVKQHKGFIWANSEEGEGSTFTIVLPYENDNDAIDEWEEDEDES
It is filed as binding.

T1 sequence (Q8DT64 entry or part of it): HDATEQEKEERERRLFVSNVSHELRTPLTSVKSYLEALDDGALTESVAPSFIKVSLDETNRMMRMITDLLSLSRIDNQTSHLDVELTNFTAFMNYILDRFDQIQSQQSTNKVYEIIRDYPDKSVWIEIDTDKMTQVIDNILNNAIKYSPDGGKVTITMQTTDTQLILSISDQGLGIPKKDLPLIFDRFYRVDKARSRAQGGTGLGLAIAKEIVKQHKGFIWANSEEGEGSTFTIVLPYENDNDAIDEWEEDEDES

Take `Nc1ncnc2c1ncn2[C@@H]1O[C@H](COP(=O)(O)OP(=O)(O)O)[C@@H](O)[C@H]1O` [ADP]: the equilibrium dissociation constant (Kd) was 701 ± 165 µM at smVicK (196-450), 1200 ± 17 µM on lpWalK (370-624) and 474 ± 97.5 µM at smVicK CA (271-450).
Take `Nc1ncnc2c1ncn2[C@@H]1O[C@H](COP(=O)(O)OP(=O)(O)NP(=O)(O)O)[C@@H](O)[C@H]1O` [AMPPNP]: the Kd was 538 ± 32 µM at smVicK (196-450), 450 ± 6.36 µM at lpWalK (370-624) (gamma-phosphate not defined in the crystal) and 292 ± 15.2 µM on smVicK CA (271-450).
For the molecule `Nc1ncnc2c1ncn2[C@@H]1O[C@H](COP(=O)(O)O)[C@@H](O)[C@H]1O` [AMP], the Kd on lpWalK (370-624) turned out to be 1280 ± 95.5 µM.

A word on the Kd: it is a measure of binding affinity in units of concentration. A higher Kd goes with weaker binding.
